From ChEMBL document CHEMBL5247656, “Discovery of a Potent, Cooperative, and Selective SOS1 PROTAC ZZ151 with In Vivo Antitumor Efficacy in KRAS-Mutant Cancers” (J Med Chem, 2023)
Calls of active or inactive are those of the source. The rule behind the calls is not given here.

Key:
[1] = target: T1, Son of sevenless homolog 1 (Homo sapiens, UniProt Q07889); assay: Binding affinity to GST-tagged human SOS1 (564 to 1049 residues) expressed in Escherichia coli BL21 (DE3) cells assessed as binary complex formation by measuring dissociation constant incubated for 15 mins by fluorescence polarization-based displacement assay
T1 sequence (Q07889 whole entry): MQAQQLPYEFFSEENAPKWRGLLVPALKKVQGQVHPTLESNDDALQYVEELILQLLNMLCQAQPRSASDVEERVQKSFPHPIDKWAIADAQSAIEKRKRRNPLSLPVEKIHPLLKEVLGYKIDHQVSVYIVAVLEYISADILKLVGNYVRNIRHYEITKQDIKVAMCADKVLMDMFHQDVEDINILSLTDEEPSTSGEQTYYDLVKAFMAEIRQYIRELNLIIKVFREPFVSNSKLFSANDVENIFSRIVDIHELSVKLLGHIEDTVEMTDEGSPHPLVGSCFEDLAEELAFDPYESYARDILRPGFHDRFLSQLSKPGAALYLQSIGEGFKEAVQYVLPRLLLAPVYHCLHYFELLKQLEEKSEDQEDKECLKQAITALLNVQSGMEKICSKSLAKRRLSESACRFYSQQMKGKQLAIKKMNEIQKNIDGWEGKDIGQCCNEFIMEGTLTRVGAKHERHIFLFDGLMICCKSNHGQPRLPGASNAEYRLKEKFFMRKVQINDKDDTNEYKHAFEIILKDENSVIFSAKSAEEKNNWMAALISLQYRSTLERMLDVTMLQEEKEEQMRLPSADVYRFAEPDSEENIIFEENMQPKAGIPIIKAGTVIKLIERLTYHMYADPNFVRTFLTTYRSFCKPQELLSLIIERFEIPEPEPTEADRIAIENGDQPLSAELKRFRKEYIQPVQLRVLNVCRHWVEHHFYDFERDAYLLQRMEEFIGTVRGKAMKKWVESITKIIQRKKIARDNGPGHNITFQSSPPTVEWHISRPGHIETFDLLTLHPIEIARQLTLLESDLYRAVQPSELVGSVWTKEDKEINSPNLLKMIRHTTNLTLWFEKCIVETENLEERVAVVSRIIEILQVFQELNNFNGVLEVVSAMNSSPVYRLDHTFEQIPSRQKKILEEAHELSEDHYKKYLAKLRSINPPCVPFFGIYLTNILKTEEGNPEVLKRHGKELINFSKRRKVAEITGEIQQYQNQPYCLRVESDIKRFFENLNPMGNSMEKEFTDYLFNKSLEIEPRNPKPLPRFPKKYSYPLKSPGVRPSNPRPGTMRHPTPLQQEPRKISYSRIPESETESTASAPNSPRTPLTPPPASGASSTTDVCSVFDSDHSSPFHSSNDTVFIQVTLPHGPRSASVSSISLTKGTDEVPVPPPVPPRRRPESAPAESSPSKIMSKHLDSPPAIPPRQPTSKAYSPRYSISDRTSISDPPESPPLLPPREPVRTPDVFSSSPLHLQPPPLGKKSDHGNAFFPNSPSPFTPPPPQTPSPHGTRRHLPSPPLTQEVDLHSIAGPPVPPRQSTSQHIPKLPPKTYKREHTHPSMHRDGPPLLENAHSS

[2] = target: T2, von Hippel-Lindau disease tumor suppressor/Son of sevenless homolog 1 (Homo sapiens) (UniProt Q07889+P40337); assay: PROTAC activity at VHL/SOS1 in human ASPC1 cells harboring KRAS G12D mutant with shRNA lentivirus mediated VHL knockdown assessed as induction of SOS1 degradation at 1 uM incubated for 24 hrs by Immunoblot analysis; assay type: cell-based
[3] = target: T2, von Hippel-Lindau disease tumor suppressor/Son of sevenless homolog 1 (Homo sapiens); assay: PROTAC activity at VHL/SOS1 in human HCT-116 cells harboring KRAS G13D mutant assessed as induction of SOS1 degradation at 1 uM incubated for 2 to 4 hrs by Immunoblot analysis; assay type: cell-based; conditions: time 2-4 hrs
[4] = target: T2, von Hippel-Lindau disease tumor suppressor/Son of sevenless homolog 1 (Homo sapiens); assay: PROTAC activity at VHL/SOS1 in human SK-LU-1 cells harboring KRAS G12D mutant assessed as induction of SOS1 degradation by measuring maximal efficacy at 1 to 2000 nM incubated for 24 hrs by Immunoblot analysis relative to control; assay type: cell-based; conditions: dose 1-2000 nM
[5] = test system: ASPC1; assay: Antiproliferative activity against human ASPC1 cells harboring KRAS G12D mutant assessed as inhibition of cell proliferation incubated for 7 days by CellTiterGlo-3D proliferation assay; assay type: functional, cell-based; conditions: ASPC1, 168 h
[6] = Toxicity in BALB/c nude mouse xenografted with human ASPC1 cells harboring KRAS G12D mutant assessed as body weight loss at 10 to 20 mg/kg, ip administered once daily for 3 weeks; assay type: organism-based; conditions: in vivo, 504 h, dose 10-20 mg/kg
[7] = target: T2, von Hippel-Lindau disease tumor suppressor/Son of sevenless homolog 1 (Homo sapiens); assay: PROTAC activity at VHL/SOS1 in human A549 cells harboring KRAS G12S mutant assessed as induction of SOS1 degradation at 1 uM incubated for 2 to 4 hrs by Immunoblot analysis; assay type: cell-based; conditions: time 2-4 hrs
[8] = test system: SW-620; assay: Antitumor activity against human SW620 cells harboring KRAS G12V mutant xenografted in BALB/c nude mouse assessed as tumor growth inhibition at 10 mg/kg, ip administered once daily for 2 weeks relative to control; assay type: functional; conditions: SW-620, 336 h, read-out: TGI
[9] = target: von Hippel-Lindau disease tumor suppressor/Son of sevenless homolog 1 (Homo sapiens, UniProt P40337+Q07889); assay: PROTAC activity at VHL/SOS1 in human NCI-H358 cells assessed as induction of SOS1 protein degradation incubated for 24 hrs by Immunoblot analysis; assay type: cell-based
[10] = target: T2, von Hippel-Lindau disease tumor suppressor/Son of sevenless homolog 1 (Homo sapiens); assay: PROTAC activity at VHL/SOS1 in human Lovo cells harboring KRAS G13D mutant assessed as induction of SOS1 degradation by measuring maximal efficacy at 1 to 2000 nM incubated for 24 hrs by Immunoblot analysis relative to control; assay type: cell-based; conditions: dose 1-2000 nM
[11] = test system: A549; assay: Antiproliferative activity against human A549 cells harboring KRAS G12S mutant assessed as inhibition of cell proliferation incubated for 7 days by CellTiterGlo-3D proliferation assay; assay type: functional, cell-based; conditions: A549, 168 h
[12] = target: T2, von Hippel-Lindau disease tumor suppressor/Son of sevenless homolog 1 (Homo sapiens); assay: PROTAC activity at VHL/SOS1 in human SK-CO-1 cells harboring G12V mutant assessed as induction of SOS1 degradation by measuring maximal efficacy at 1 to 2000 nM incubated for 24 hrs by Immunoblot analysis relative to control; assay type: cell-based; conditions: dose 1-2000 nM
[13] = target: T2, von Hippel-Lindau disease tumor suppressor/Son of sevenless homolog 1 (Homo sapiens); assay: PROTAC activity at VHL/SOS1 in human HCT-116 cells harboring KRAS G13D mutant assessed as induction of SOS1 degradation by measuring maximal efficacy at 1 to 2000 nM incubated for 24 hrs by Immunoblot analysis relative to control; assay type: cell-based; conditions: dose 1-2000 nM
[14] = target: T2, von Hippel-Lindau disease tumor suppressor/Son of sevenless homolog 1 (Homo sapiens); assay: PROTAC activity at VHL/SOS1 in human PANC-1 cells harboring KRAS G12D mutant assessed as induction of SOS1 degradation by measuring maximal efficacy at 1 to 2000 nM incubated for 24 hrs by Immunoblot analysis relative to control; assay type: cell-based; conditions: dose 1-2000 nM
[15] = Half-life in BALB/c mouse at 10 mg/kg, ip measured upto 24 hrs by LC-MS/MS analysis; assay type: ADME, organism-based; conditions: in vivo
[16] = target: T2, von Hippel-Lindau disease tumor suppressor/Son of sevenless homolog 1 (Homo sapiens); assay: PROTAC activity at VHL/SOS1 in human A549 cells harboring KRAS G12S mutant assessed as induction of SOS1 degradation by measuring maximal efficacy at 1 to 2000 nM incubated for 24 hrs by Immunoblot analysis relative to control; assay type: cell-based; conditions: dose 1-2000 nM

T2 sequence (P40337 whole entry, looked up, one chain of several): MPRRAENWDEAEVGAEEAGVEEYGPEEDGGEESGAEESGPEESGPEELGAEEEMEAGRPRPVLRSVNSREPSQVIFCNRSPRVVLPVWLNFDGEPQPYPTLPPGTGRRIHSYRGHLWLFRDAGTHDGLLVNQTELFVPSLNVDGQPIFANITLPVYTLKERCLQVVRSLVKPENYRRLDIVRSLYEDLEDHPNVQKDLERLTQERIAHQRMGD
Sequence of von Hippel-Lindau disease tumor suppressor/Son of sevenless homolog 1 (P40337 whole entry, one chain of several): as the sequence (P40337 whole entry, looked up, one chain of several) above

Question: What does the source list for COc1cc2nc(C)nc(N[C@H](C)c3cc(N)cc(C(F)(F)F)c3)c2cc1C1CCN(C(=O)CCCCCC(=O)N[C@H](C(=O)N2C[C@H](O)C[C@H]2C(=O)N[C@@H](C)c2ccc(-c3scnc3C)cc2)C(C)(C)C)CC1?
Answer: Kd [1]: 93 nM; Activity [2]: inactive; Activity [3]: Active; Emax [4]: > 95%; IC50 [5]: 6.97 nM; Activity [6]: Non-Toxic; Activity [7]: Active; inhibition in vivo at 10 mg/kg [8]: 46.5%; EC50 [9]: 15.7 nM; Emax [10]: > 95%; IC50 [11]: 105 nM; Emax [12]: > 95%; Emax [13]: > 95%; Emax [14]: > 95%; half-life [15]: 9.69 h; Emax [16]: > 95%
